Source: the kinase profiling compilation of Christmann-Franck et al. (2016)

Columns and labels:
Test in all cases: KINOMEscan competition binding
Conditions in all cases: compound 10.0 µM
AKT1 (human) = AKT1 (human) (UniProt P31749)
FLT3 (human) = FLT3 (human) (UniProt P36888)
EPHA8 (human) = EPHA8 (human) (UniProt P29322)
PRKACA (human) = PRKACA (human) (UniProt P17612)
MET (human) = MET (human) (UniProt P08581)
MARK4 (human) = MARK4 (human) (UniProt Q96L34)
PAK3 (human) = PAK3 (human) (UniProt O75914)
CSNK1A1L (human) = CSNK1A1L (human) (UniProt Q8N752)
RPS6KA4 KD2 (human) = RPS6KA4 KD2 (human) (UniProt O75676)
MAPK13 (human) = MAPK13 (human) (UniProt O15264)
CDK11B (human) = CDK11B (human) (UniProt P21127)
CDK16 (human) = CDK16 (human) (UniProt Q00536)
MYO3B (human) = MYO3B (human) (UniProt Q8WXR4)
[1] = tested on: EGFR (human), P00533 [G719C]
PIM2 (human) = PIM2 (human) (UniProt Q9P1W9)
FRK (human) = FRK (human) (UniProt P42685)
EPHB1 (human) = EPHB1 (human) (UniProt P54762)
ACVR1B (human) = ACVR1B (human) (UniProt P36896)
ERBB4 (human) = ERBB4 (human) (UniProt Q15303)
PKN2 (human) = PKN2 (human) (UniProt Q16513)
CDC42BPA (human) = CDC42BPA (human) (UniProt Q5VT25)
HIPK1 (human) = HIPK1 (human) (UniProt Q86Z02)
MAP3K5 (human) = MAP3K5 (human) (UniProt Q99683)
STK36 (human) = STK36 (human) (UniProt Q9NRP7)
PRKAA1 (human) = PRKAA1 (human) (UniProt Q13131)
TESK1 (human) = TESK1 (human) (UniProt Q15569)
RIOK3 (human) = RIOK3 (human) (UniProt O14730)
CLK3 (human) = CLK3 (human) (UniProt P49761)
CHEK2 (human) = CHEK2 (human) (UniProt O96017)
MARK1 (human) = MARK1 (human) (UniProt Q9P0L2)
TAOK1 (human) = TAOK1 (human) (UniProt Q7L7X3)
MAP3K6 (human) = MAP3K6 (human) (UniProt O95382)
TTK (human) = TTK (human) (UniProt P33981)
CHEK1 (human) = CHEK1 (human) (UniProt O14757)
FGFR1 (human) = FGFR1 (human) (UniProt P11362)
DMPK (human) = DMPK (human) (UniProt Q09013)
STK10 (human) = STK10 (human) (UniProt O94804)
RIPK2 (human) = RIPK2 (human) (UniProt O43353)
AAK1 (human) = AAK1 (human) (UniProt Q2M2I8)

TESK1 (human), sequence (Q15569 whole entry, looked up): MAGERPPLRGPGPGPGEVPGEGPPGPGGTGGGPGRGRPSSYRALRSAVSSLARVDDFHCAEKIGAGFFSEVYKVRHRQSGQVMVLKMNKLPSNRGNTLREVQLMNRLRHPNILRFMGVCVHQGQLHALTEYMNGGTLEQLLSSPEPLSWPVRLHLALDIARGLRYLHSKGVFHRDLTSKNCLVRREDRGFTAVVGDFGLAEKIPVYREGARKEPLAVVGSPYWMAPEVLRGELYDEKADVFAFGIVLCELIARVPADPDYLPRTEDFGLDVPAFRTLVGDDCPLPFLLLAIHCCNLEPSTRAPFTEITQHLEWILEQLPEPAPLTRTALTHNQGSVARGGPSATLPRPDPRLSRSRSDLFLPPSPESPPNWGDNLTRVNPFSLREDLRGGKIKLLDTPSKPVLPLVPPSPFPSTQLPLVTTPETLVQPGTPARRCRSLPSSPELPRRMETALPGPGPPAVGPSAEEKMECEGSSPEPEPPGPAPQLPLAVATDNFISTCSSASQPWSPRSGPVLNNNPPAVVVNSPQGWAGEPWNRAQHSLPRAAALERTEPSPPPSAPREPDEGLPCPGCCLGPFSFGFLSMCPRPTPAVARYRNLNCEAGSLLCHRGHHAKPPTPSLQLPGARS
FGFR1 (human), sequence (P11362 whole entry, looked up): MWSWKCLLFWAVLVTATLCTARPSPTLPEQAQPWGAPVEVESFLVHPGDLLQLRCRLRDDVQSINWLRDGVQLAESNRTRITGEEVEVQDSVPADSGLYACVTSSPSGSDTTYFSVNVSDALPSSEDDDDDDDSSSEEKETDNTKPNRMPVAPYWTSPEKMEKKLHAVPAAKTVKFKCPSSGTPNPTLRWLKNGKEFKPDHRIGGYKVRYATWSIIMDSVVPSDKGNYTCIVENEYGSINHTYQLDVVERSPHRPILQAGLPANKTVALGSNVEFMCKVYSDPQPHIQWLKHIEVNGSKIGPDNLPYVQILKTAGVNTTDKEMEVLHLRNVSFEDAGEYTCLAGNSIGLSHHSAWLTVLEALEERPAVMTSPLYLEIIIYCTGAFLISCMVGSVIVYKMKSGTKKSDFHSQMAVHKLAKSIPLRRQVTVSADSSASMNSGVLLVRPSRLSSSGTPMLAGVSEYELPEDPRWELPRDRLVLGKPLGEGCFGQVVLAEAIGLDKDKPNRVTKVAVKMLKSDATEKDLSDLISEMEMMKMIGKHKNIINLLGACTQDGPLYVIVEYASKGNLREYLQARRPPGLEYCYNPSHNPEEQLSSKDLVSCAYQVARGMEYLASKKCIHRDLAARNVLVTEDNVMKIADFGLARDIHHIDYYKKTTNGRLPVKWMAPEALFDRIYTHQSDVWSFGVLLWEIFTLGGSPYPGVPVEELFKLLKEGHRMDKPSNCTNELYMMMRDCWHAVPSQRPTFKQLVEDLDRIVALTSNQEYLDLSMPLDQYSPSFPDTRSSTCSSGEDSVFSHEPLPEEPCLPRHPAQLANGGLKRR
MET (human), sequence (P08581 whole entry, looked up): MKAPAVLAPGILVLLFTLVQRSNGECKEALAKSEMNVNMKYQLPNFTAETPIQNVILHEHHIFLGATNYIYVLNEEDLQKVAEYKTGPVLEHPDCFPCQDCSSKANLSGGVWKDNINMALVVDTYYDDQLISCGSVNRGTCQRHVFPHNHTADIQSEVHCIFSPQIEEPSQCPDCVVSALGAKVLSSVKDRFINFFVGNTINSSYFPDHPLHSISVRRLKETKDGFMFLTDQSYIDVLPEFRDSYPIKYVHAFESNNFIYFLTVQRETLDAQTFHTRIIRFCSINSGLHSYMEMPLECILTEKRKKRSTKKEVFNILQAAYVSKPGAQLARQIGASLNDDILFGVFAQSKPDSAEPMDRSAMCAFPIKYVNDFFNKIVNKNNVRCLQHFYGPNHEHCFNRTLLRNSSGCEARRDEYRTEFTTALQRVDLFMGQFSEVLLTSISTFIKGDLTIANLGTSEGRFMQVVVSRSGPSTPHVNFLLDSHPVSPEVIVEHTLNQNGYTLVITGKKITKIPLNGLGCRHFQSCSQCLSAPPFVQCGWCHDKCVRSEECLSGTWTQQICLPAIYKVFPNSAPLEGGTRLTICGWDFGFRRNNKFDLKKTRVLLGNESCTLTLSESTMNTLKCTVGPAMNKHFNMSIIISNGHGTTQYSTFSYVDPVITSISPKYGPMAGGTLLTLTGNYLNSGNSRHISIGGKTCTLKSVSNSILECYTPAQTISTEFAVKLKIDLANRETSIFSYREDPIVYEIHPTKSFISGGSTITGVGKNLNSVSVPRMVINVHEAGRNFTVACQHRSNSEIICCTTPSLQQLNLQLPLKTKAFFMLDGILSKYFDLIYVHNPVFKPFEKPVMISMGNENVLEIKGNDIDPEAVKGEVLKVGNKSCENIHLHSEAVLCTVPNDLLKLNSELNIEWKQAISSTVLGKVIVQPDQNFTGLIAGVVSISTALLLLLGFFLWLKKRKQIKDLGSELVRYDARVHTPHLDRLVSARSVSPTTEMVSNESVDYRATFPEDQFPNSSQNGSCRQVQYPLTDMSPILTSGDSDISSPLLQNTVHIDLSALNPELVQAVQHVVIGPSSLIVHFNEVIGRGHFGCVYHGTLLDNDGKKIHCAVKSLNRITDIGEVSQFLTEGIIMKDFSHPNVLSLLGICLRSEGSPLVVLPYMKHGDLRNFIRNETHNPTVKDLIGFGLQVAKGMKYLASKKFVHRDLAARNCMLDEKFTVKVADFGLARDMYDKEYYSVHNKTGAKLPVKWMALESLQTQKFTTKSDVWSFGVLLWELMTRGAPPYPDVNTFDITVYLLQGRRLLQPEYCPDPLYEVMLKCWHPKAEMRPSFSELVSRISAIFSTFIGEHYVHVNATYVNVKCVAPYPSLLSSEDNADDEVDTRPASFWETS
ACVR1B (human), sequence (P36896 whole entry, looked up): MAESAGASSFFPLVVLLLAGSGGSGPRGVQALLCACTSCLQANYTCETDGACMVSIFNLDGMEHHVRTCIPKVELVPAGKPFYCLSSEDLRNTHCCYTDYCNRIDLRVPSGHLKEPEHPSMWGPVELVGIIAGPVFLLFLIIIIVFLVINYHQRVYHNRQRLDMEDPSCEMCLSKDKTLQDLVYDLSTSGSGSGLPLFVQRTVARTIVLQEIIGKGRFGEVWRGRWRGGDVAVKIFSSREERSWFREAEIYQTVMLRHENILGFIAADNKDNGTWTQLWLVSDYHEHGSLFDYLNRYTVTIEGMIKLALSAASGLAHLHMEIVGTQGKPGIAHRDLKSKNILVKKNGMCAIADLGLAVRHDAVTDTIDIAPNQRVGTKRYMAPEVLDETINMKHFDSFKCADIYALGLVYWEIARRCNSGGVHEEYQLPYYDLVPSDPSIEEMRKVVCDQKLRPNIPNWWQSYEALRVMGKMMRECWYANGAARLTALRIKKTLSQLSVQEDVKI
MARK1 (human), sequence (Q9P0L2 whole entry, looked up): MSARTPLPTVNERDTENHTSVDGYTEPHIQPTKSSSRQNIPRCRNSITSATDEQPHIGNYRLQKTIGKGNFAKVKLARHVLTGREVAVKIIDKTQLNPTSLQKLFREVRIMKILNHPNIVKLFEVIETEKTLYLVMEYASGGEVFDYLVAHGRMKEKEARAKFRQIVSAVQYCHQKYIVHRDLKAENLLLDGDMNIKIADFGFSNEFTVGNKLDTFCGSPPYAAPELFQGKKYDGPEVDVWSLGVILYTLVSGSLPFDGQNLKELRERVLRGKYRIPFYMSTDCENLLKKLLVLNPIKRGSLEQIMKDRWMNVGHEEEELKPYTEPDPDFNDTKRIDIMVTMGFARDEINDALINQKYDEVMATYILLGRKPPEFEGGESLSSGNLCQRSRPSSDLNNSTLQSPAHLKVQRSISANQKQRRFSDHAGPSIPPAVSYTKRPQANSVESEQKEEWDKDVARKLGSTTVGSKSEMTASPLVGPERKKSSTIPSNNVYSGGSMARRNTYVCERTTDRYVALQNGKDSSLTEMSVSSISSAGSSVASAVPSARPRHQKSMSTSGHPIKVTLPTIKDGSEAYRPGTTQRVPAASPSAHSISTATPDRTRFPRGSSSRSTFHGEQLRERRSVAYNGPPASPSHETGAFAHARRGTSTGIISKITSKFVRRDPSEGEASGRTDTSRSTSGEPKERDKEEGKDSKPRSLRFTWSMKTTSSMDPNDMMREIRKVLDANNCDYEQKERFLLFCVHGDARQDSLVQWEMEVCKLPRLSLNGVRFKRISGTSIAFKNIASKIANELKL
CHEK1 (human), sequence (O14757 whole entry, looked up): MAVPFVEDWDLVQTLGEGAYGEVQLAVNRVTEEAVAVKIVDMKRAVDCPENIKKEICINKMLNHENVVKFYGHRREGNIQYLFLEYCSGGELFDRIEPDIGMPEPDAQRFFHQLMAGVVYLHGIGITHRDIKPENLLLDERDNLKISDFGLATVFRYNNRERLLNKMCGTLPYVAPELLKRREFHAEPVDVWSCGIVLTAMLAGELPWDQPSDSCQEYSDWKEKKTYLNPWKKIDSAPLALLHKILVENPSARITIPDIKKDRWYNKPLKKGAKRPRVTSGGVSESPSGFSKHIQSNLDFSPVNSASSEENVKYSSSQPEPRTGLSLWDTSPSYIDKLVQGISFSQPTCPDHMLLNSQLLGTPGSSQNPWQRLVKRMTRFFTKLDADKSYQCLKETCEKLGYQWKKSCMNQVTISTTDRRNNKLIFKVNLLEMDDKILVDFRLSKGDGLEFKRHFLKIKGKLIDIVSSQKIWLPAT
PIM2 (human), sequence (Q9P1W9 whole entry, looked up): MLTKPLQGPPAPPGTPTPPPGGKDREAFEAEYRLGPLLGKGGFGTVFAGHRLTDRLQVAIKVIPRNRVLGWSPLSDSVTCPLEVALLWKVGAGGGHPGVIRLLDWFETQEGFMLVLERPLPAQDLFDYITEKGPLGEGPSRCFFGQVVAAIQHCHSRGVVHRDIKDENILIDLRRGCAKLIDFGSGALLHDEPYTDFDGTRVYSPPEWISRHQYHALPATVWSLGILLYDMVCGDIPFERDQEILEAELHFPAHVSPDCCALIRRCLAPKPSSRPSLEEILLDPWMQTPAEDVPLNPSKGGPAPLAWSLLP

kinase still bound, per cent of control (AKT1 (human)) | kinase still bound, per cent of control (FLT3 (human)) | kinase still bound, per cent of control (EPHA8 (human)) | kinase still bound, per cent of control (PRKACA (human)) | kinase still bound, per cent of control (MET (human)) | kinase still bound, per cent of control (MARK4 (human)) | kinase still bound, per cent of control (PAK3 (human)) | kinase still bound, per cent of control (CSNK1A1L (human)) | kinase still bound, per cent of control (RPS6KA4 KD2 (human)) | kinase still bound, per cent of control (CDK11B (human)) | kinase still bound, per cent of control (CDK16 (human)) | kinase still bound, per cent of control (MYO3B (human)) | kinase still bound, per cent of control [1] | kinase still bound, per cent of control (PIM2 (human)) | kinase still bound, per cent of control (FRK (human)) | kinase still bound, per cent of control (EPHB1 (human)) | kinase still bound, per cent of control (ACVR1B (human)) | kinase still bound, per cent of control (ERBB4 (human)) | kinase still bound, per cent of control (PKN2 (human)) | kinase still bound, per cent of control (CDC42BPA (human)) | other results | Structure (SMILES)
100% | 100% | 0.3% | 100% | 100% | 100% | 100% | 100% | 100% | 100% | 100% | 100% | 100% | 100% | 0.85% | 21% | 100% | 100% | 100% | 100% | kinase still bound, per cent of control (MAPK13 (human)): 100%; kinase still bound, per cent of control (HIPK1 (human)): 100%; kinase still bound, per cent of control (MAP3K5 (human)): 100%; kinase still bound, per cent of control (STK36 (human)): 100%; kinase still bound, per cent of control (PRKAA1 (human)): 100%; kinase still bound, per cent of control (TESK1 (human)): 100%; kinase still bound, per cent of control (RIOK3 (human)): 100%; kinase still bound, per cent of control (CLK3 (human)): 100%; kinase still bound, per cent of control (CHEK2 (human)): 100%; kinase still bound, per cent of control (MARK1 (human)): 100%; kinase still bound, per cent of control (TAOK1 (human)): 100%; kinase still bound, per cent of control (MAP3K6 (human)): 100%; kinase still bound, per cent of control (TTK (human)): 100%; kinase still bound, per cent of control (CHEK1 (human)): 100%; kinase still bound, per cent of control (FGFR1 (human)): 100%; kinase still bound, per cent of control (DMPK (human)): 100%; kinase still bound, per cent of control (STK10 (human)): 100%; kinase still bound, per cent of control (RIPK2 (human)): 100%; kinase still bound, per cent of control (AAK1 (human)): 100% | Cc1cn(-c2cc(C(=O)Nc3ccc(C)c(NC(=O)c4ccno4)c3)cc(C(F)(F)F)c2)cn1
100% | 100% | 100% | 100% | 29% | 100% | 100% | 100% | 100% | 100% | 100% | 100% | 100% | 100% | 100% | 24% | 100% | 100% | 100% | 100% | kinase still bound, per cent of control (MAPK13 (human)): 100%; kinase still bound, per cent of control (HIPK1 (human)): 100%; kinase still bound, per cent of control (MAP3K5 (human)): 100%; kinase still bound, per cent of control (STK36 (human)): 100%; kinase still bound, per cent of control (PRKAA1 (human)): 100%; kinase still bound, per cent of control (TESK1 (human)): 100%; kinase still bound, per cent of control (RIOK3 (human)): 100%; kinase still bound, per cent of control (CLK3 (human)): 19%; kinase still bound, per cent of control (CHEK2 (human)): 100%; kinase still bound, per cent of control (MARK1 (human)): 100%; kinase still bound, per cent of control (TAOK1 (human)): 16%; kinase still bound, per cent of control (TTK (human)): 100%; kinase still bound, per cent of control (CHEK1 (human)): 100%; kinase still bound, per cent of control (FGFR1 (human)): 100%; kinase still bound, per cent of control (DMPK (human)): 100%; kinase still bound, per cent of control (STK10 (human)): 13%; kinase still bound, per cent of control (RIPK2 (human)): 100%; kinase still bound, per cent of control (AAK1 (human)): 100% | COc1cc(C)c(Sc2cnc(NC(=O)c3ccc(CNC(C)C(C)C)cc3)s2)cc1C(=O)N1CCN(C(C)=O)CC1 (centres undefined)
100% | 100% | 0% | 33% | 100% | 100% | 11% | 100% | 100% | 8.3% | 100% | 100% | 23% | 100% | 0.4% | 0.15% | 100% | 9.8% | 100% | 100% | kinase still bound, per cent of control (MAP3K5 (human)): 100%; kinase still bound, per cent of control (STK36 (human)): 1.2%; kinase still bound, per cent of control (PRKAA1 (human)): 1.6%; kinase still bound, per cent of control (TESK1 (human)): 3.8%; kinase still bound, per cent of control (RIOK3 (human)): 100%; kinase still bound, per cent of control (CLK3 (human)): 100%; kinase still bound, per cent of control (MARK1 (human)): 100%; kinase still bound, per cent of control (TTK (human)): 100%; kinase still bound, per cent of control (CHEK1 (human)): 100%; kinase still bound, per cent of control (FGFR1 (human)): 0.6%; kinase still bound, per cent of control (DMPK (human)): 100%; kinase still bound, per cent of control (STK10 (human)): 0%; kinase still bound, per cent of control (RIPK2 (human)): 2.3%; kinase still bound, per cent of control (AAK1 (human)): 100% | COc1ccc(N(C(=O)Oc2cc(C(=O)Nc3cccc(C(F)(F)F)c3)ccc2C)c2ccnc(Nc3ccc(N4CCN(C)CC4)cc3)n2)c(OC)c1
100% | 100% | 100% | 100% | 100% | 100% | 100% | 21% | 100% | 100% | 100% | 24% | 20% | 100% | 6.6% | 100% | 100% | 0.55% | 100% | 100% | kinase still bound, per cent of control (MAPK13 (human)): 100%; kinase still bound, per cent of control (HIPK1 (human)): 100%; kinase still bound, per cent of control (MAP3K5 (human)): 100%; kinase still bound, per cent of control (STK36 (human)): 100%; kinase still bound, per cent of control (PRKAA1 (human)): 100%; kinase still bound, per cent of control (TESK1 (human)): 100%; kinase still bound, per cent of control (RIOK3 (human)): 100%; kinase still bound, per cent of control (CLK3 (human)): 8.3%; kinase still bound, per cent of control (CHEK2 (human)): 14%; kinase still bound, per cent of control (MARK1 (human)): 100%; kinase still bound, per cent of control (TAOK1 (human)): 100%; kinase still bound, per cent of control (TTK (human)): 7%; kinase still bound, per cent of control (CHEK1 (human)): 100%; kinase still bound, per cent of control (FGFR1 (human)): 100%; kinase still bound, per cent of control (DMPK (human)): 100%; kinase still bound, per cent of control (STK10 (human)): 100%; kinase still bound, per cent of control (RIPK2 (human)): 100%; kinase still bound, per cent of control (AAK1 (human)): 100% | COc1cc(N2CCC(C(N)=O)CC2)ccc1Nc1nc(N)c(Cl)c(Nc2ccccc2S(=O)(=O)C(C)C)n1
